Numbers after ± are expanded uncertainties.
Experiment: xn = mol fraction of the nth substance listed
Details: 100 kPa, Liquid; for viscosity: Concentric cylinders viscometry; for mass density: Vibrating tube method

CN1CCC[C@H]1c1cccnc1 [(-)-3-(N-methylpyrrolidino)pyridine] + CCCCO
viscosity (293.15 K, x1 = 0.1): 3.049 ± 0.063 mPa·s | viscosity (293.15 K, x1 = 0.196): 3.209 ± 0.066 mPa·s | viscosity (293.15 K, x1 = 0.3): 3.408 ± 0.07 mPa·s | viscosity (293.15 K, x1 = 0.3931): 3.601 ± 0.074 mPa·s | viscosity (293.15 K, x1 = 0.5): 3.829 ± 0.079 mPa·s | viscosity (293.15 K, x1 = 0.593): 4.027 ± 0.083 mPa·s | viscosity (293.15 K, x1 = 0.7): 4.242 ± 0.088 mPa·s | viscosity (293.15 K, x1 = 0.7931): 4.412 ± 0.092 mPa·s | viscosity (293.15 K, x1 = 0.9): 4.578 ± 0.096 mPa·s | viscosity (293.15 K, x1 = 1): 4.694 ± 0.098 mPa·s | mass density (293.15 K, x1 = 0.1): 845.043 ± 1 kg/m3 | mass density (293.15 K, x1 = 0.196): 874.098 ± 1 kg/m3 | mass density (293.15 K, x1 = 0.3): 901.216 ± 1 kg/m3 | mass density (293.15 K, x1 = 0.3931): 922.268 ± 1 kg/m3 | mass density (293.15 K, x1 = 0.5): 943.285 ± 1 kg/m3 | mass density (293.15 K, x1 = 0.593): 960.358 ± 1 kg/m3 | mass density (293.15 K, x1 = 0.7): 975.308 ± 1 kg/m3 | mass density (293.15 K, x1 = 0.7931): 987.593 ± 1 kg/m3 | mass density (293.15 K, x1 = 0.9): 1000.01 ± 1 kg/m3 | mass density (293.15 K, x1 = 1): 1010.23 ± 1 kg/m3 | viscosity (298.15 K, x1 = 0.1): 2.692 ± 0.056 mPa·s | viscosity (298.15 K, x1 = 0.196): 2.833 ± 0.058 mPa·s | viscosity (298.15 K, x1 = 0.3): 2.999 ± 0.062 mPa·s | viscosity (298.15 K, x1 = 0.3931): 3.155 ± 0.065 mPa·s | viscosity (298.15 K, x1 = 0.5): 3.337 ± 0.069 mPa·s | viscosity (298.15 K, x1 = 0.593): 3.494 ± 0.072 mPa·s | viscosity (298.15 K, x1 = 0.7): 3.666 ± 0.076 mPa·s | viscosity (298.15 K, x1 = 0.7931): 3.803 ± 0.079 mPa·s | viscosity (298.15 K, x1 = 0.9): 3.942 ± 0.082 mPa·s | viscosity (298.15 K, x1 = 1): 4.048 ± 0.085 mPa·s | mass density (298.15 K, x1 = 0.1): 841.123 ± 1 kg/m3 | mass density (298.15 K, x1 = 0.196): 870.112 ± 1 kg/m3 | mass density (298.15 K, x1 = 0.3): 897.182 ± 1 kg/m3 | mass density (298.15 K, x1 = 0.3931): 918.206 ± 1 kg/m3 | mass density (298.15 K, x1 = 0.5): 939.205 ± 1 kg/m3 | mass density (298.15 K, x1 = 0.593): 956.271 ± 1 kg/m3 | mass density (298.15 K, x1 = 0.7): 971.222 ± 1 kg/m3 | mass density (298.15 K, x1 = 0.7931): 983.509 ± 1 kg/m3 | mass density (298.15 K, x1 = 0.9): 995.934 ± 1 kg/m3 | mass density (298.15 K, x1 = 1): 1006.16 ± 1 kg/m3 | viscosity (303.15 K, x1 = 0.1): 2.374 ± 0.049 mPa·s | viscosity (303.15 K, x1 = 0.196): 2.498 ± 0.052 mPa·s | viscosity (303.15 K, x1 = 0.3): 2.642 ± 0.055 mPa·s | viscosity (303.15 K, x1 = 0.3931): 2.776 ± 0.058 mPa·s | viscosity (303.15 K, x1 = 0.5): 2.931 ± 0.061 mPa·s | viscosity (303.15 K, x1 = 0.593): 3.062 ± 0.064 mPa·s | viscosity (303.15 K, x1 = 0.7): 3.205 ± 0.067 mPa·s | viscosity (303.15 K, x1 = 0.7931): 3.319 ± 0.069 mPa·s | viscosity (303.15 K, x1 = 0.9): 3.433 ± 0.072 mPa·s | viscosity (303.15 K, x1 = 1): 3.518 ± 0.074 mPa·s | mass density (303.15 K, x1 = 0.1): 837.185 ± 1 kg/m3 | mass density (303.15 K, x1 = 0.196): 866.114 ± 1 kg/m3 | mass density (303.15 K, x1 = 0.3): 893.14 ± 1 kg/m3 | mass density (303.15 K, x1 = 0.3931): 914.139 ± 1 kg/m3 | mass density (303.15 K, x1 = 0.5): 935.124 ± 1 kg/m3 | mass density (303.15 K, x1 = 0.593): 952.186 ± 1 kg/m3 | mass density (303.15 K, x1 = 0.7): 967.138 ± 1 kg/m3 | mass density (303.15 K, x1 = 0.7931): 979.432 ± 1 kg/m3 | mass density (303.15 K, x1 = 0.9): 991.866 ± 1 kg/m3 | mass density (303.15 K, x1 = 1): 1002.1 ± 1 kg/m3 | viscosity (308.15 K, x1 = 0.1): 2.105 ± 0.044 mPa·s | viscosity (308.15 K, x1 = 0.196): 2.219 ± 0.046 mPa·s | viscosity (308.15 K, x1 = 0.3): 2.346 ± 0.049 mPa·s | viscosity (308.15 K, x1 = 0.3931): 2.461 ± 0.051 mPa·s | viscosity (308.15 K, x1 = 0.5): 2.592 ± 0.054 mPa·s | viscosity (308.15 K, x1 = 0.593): 2.702 ± 0.056 mPa·s | viscosity (308.15 K, x1 = 0.7): 2.821 ± 0.059 mPa·s | viscosity (308.15 K, x1 = 0.7931): 2.917 ± 0.061 mPa·s | viscosity (308.15 K, x1 = 0.9): 3.013 ± 0.063 mPa·s | viscosity (308.15 K, x1 = 1): 3.088 ± 0.065 mPa·s | mass density (308.15 K, x1 = 0.1): 833.229 ± 1 kg/m3 | mass density (308.15 K, x1 = 0.196): 862.102 ± 1 kg/m3 | mass density (308.15 K, x1 = 0.3): 889.089 ± 1 kg/m3 | mass density (308.15 K, x1 = 0.3931): 910.068 ± 1 kg/m3 | mass density (308.15 K, x1 = 0.5): 931.041 ± 1 kg/m3 | mass density (308.15 K, x1 = 0.593): 948.102 ± 1 kg/m3 | mass density (308.15 K, x1 = 0.7): 963.059 ± 1 kg/m3 | mass density (308.15 K, x1 = 0.7931): 975.36 ± 1 kg/m3 | mass density (308.15 K, x1 = 0.9): 987.806 ± 1 kg/m3 | mass density (308.15 K, x1 = 1): 998.055 ± 1 kg/m3 | viscosity (313.15 K, x1 = 0.1): 1.885 ± 0.039 mPa·s | viscosity (313.15 K, x1 = 0.196): 1.99 ± 0.041 mPa·s | viscosity (313.15 K, x1 = 0.3): 2.103 ± 0.044 mPa·s | viscosity (313.15 K, x1 = 0.3931): 2.203 ± 0.046 mPa·s | viscosity (313.15 K, x1 = 0.5): 2.316 ± 0.048 mPa·s | viscosity (313.15 K, x1 = 0.593): 2.41 ± 0.05 mPa·s | viscosity (313.15 K, x1 = 0.7): 2.514 ± 0.053 mPa·s | viscosity (313.15 K, x1 = 0.7931): 2.598 ± 0.054 mPa·s | viscosity (313.15 K, x1 = 0.9): 2.686 ± 0.056 mPa·s | viscosity (313.15 K, x1 = 1): 2.758 ± 0.058 mPa·s | mass density (313.15 K, x1 = 0.1): 829.249 ± 1 kg/m3 | mass density (313.15 K, x1 = 0.196): 858.073 ± 1 kg/m3 | mass density (313.15 K, x1 = 0.3): 885.026 ± 1 kg/m3 | mass density (313.15 K, x1 = 0.3931): 905.989 ± 1 kg/m3 | mass density (313.15 K, x1 = 0.5): 926.955 ± 1 kg/m3 | mass density (313.15 K, x1 = 0.593): 944.017 ± 1 kg/m3 | mass density (313.15 K, x1 = 0.7): 958.981 ± 1 kg/m3 | mass density (313.15 K, x1 = 0.7931): 971.292 ± 1 kg/m3 | mass density (313.15 K, x1 = 0.9): 983.751 ± 1 kg/m3 | mass density (313.15 K, x1 = 1): 994.014 ± 1 kg/m3 | viscosity (318.15 K, x1 = 0.1): 1.683 ± 0.035 mPa·s | viscosity (318.15 K, x1 = 0.196): 1.777 ± 0.037 mPa·s | viscosity (318.15 K, x1 = 0.3): 1.88 ± 0.039 mPa·s | viscosity (318.15 K, x1 = 0.3931): 1.97 ± 0.041 mPa·s | viscosity (318.15 K, x1 = 0.5): 2.07 ± 0.043 mPa·s | viscosity (318.15 K, x1 = 0.593): 2.152 ± 0.045 mPa·s | viscosity (318.15 K, x1 = 0.7): 2.239 ± 0.047 mPa·s | viscosity (318.15 K, x1 = 0.7931): 2.304 ± 0.048 mPa·s | viscosity (318.15 K, x1 = 0.9): 2.367 ± 0.05 mPa·s | viscosity (318.15 K, x1 = 1): 2.411 ± 0.051 mPa·s | mass density (318.15 K, x1 = 0.1): 825.24 ± 1 kg/m3 | mass density (318.15 K, x1 = 0.196): 854.022 ± 1 kg/m3 | mass density (318.15 K, x1 = 0.3): 880.948 ± 1 kg/m3 | mass density (318.15 K, x1 = 0.3931): 901.899 ± 1 kg/m3 | mass density (318.15 K, x1 = 0.5): 922.862 ± 1 kg/m3 | mass density (318.15 K, x1 = 0.593): 939.982 ± 1 kg/m3 | mass density (318.15 K, x1 = 0.7): 954.903 ± 1 kg/m3 | mass density (318.15 K, x1 = 0.7931): 967.226 ± 1 kg/m3 | mass density (318.15 K, x1 = 0.9): 979.704 ± 1 kg/m3 | mass density (318.15 K, x1 = 1): 989.984 ± 1 kg/m3 | viscosity (323.15 K, x1 = 0.1): 1.495 ± 0.031 mPa·s | viscosity (323.15 K, x1 = 0.196): 1.603 ± 0.033 mPa·s | viscosity (323.15 K, x1 = 0.3): 1.708 ± 0.036 mPa·s | viscosity (323.15 K, x1 = 0.3931): 1.793 ± 0.037 mPa·s | viscosity (323.15 K, x1 = 0.5): 1.882 ± 0.039 mPa·s | viscosity (323.15 K, x1 = 0.593): 1.952 ± 0.041 mPa·s | viscosity (323.15 K, x1 = 0.7): 2.025 ± 0.042 mPa·s | viscosity (323.15 K, x1 = 0.7931): 2.083 ± 0.044 mPa·s | viscosity (323.15 K, x1 = 0.9): 2.143 ± 0.045 mPa·s | viscosity (323.15 K, x1 = 1): 2.195 ± 0.046 mPa·s | mass density (323.15 K, x1 = 0.1): 821.198 ± 1 kg/m3 | mass density (323.15 K, x1 = 0.196): 849.946 ± 1 kg/m3 | mass density (323.15 K, x1 = 0.3): 876.851 ± 1 kg/m3 | mass density (323.15 K, x1 = 0.3931): 897.795 ± 1 kg/m3 | mass density (323.15 K, x1 = 0.5): 918.759 ± 1 kg/m3 | mass density (323.15 K, x1 = 0.593): 935.834 ± 1 kg/m3 | mass density (323.15 K, x1 = 0.7): 950.822 ± 1 kg/m3 | mass density (323.15 K, x1 = 0.7931): 963.162 ± 1 kg/m3 | mass density (323.15 K, x1 = 0.9): 975.66 ± 1 kg/m3 | mass density (323.15 K, x1 = 1): 985.962 ± 1 kg/m3

Source: the NIST ThermoML archive (doi:10.1016/j.jct.2016.07.005)
